Experimental data: patent US20230322724A1, “HETEROCYCLIC COMPOUNDS AS CBP/EP300 BROMODOMAIN INHIBITORS” (AURIGENE ONCOLOGY LIMITED, priority 2020, published 2023)

Columns and labels:
[1] = biological target: T1, recombinant BRD4 FL bromodomain (Homo sapiens, UniProt O60885); test: BRD4 FL TR-FRET displacement assay; assay type: binding; conditions: BRD4 FL; for IC50: dose-response, read-out: IC50 (group A, B, C); for inhibition at 10 µM: read-out: % Inhibition (10 μM)
T1 construct: fused on or other part: 6xHis tag, inferred from detection with Mab ANTI 6HIS-XL665
Experimental: The potency of compounds to inhibit BRD4 FL enzyme was tested in a TR-FRET displacement assay using recombinant BRD4 FL bromodomain obtained In-house. The assay buffer was 50 mM HEPES (pH 7.5), 50 mM NaCl, 500 μM CHAPS. 10 nM of BRD4 FL & 300 nM of Biotinylated Acetyl histone H4 (Lys 5, 8, 12, 16) (Millipore, USA) was incubated at room temperature for 30 minutes, the reaction was initiated by adding the pre-incubated enzyme ligand mixture to the test compounds. After 30 min incubation, the reaction was stopped by the addition of stop mix containing 1 nM of Europium Streptavidin cryptate (Cisbio, USA) and 5 nM of Mab ANTI 6HIS-XL665 (Cisbio, USA) dilutes in assay buffer containing 2.4M Potassium Fluoride. Fluorescence emission of the samples at 665 and 615 nm were measured at an excitation of 340 nm and their ratio was plotted against the compound concentrations to generate dose-response curve. The percent inhibition of the test compounds is calculated using the ratio of enzyme activity controls.
Selected compounds of the present invention were screened in the above-mentioned assay procedures and IC50 values were determined by fitting the dose-response data to sigmoidal curve fitting equation using Graph pad prism software V7.

[2] = biological target: T2, recombinant CREBBP bromodomain (Homo sapiens, UniProt Q92793); test: CBP TR-FRET displacement assay; assay type: binding; conditions: for inhibition at 10 µM: compound at 10 μM; for IC50: dose-response, read-out: IC50 (group A, B, C)
T2 construct: recombinant CREBBP bromodomain obtained from BPS Bioscience, USA; purchased BPS Bioscience, USA
T2 sequence (Q92793 1085-1192 limits assumed): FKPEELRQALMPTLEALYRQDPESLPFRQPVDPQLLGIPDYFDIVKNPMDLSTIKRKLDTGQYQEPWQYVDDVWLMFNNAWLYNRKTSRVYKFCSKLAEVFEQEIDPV
Experimental: The potency of compounds to inhibit CREBBP enzyme was tested in a TR-FRET displacement assay using recombinant CREBBP bromodomain obtained from BPS Bioscience, USA. The assay buffer was 50 mM HEPES (pH 7.5), 50 mM NaCl, 0.008% Brij 35, 0.01% BSA, 1 mM TCEP. 50 nM of CREBBP & 500 nM of Biotinylated ligand was incubated at room temperature for 30 minutes, the reaction was initiated by adding pre-incubated enzyme ligand mixture to the test compounds. After 60 min incubation, the reaction was stopped by the addition of stop mix containing 1 nM of LANCE Europium-anti-6xHis antibody (Perkin Elmer, USA) and 40 nM of Sure Light Allophycocyanin-Streptavidin (Perkin Elmer, USA). Fluorescence emission of the samples at 665 and 615 nm were measured at an excitation of 340 nm and their ratio was plotted against the compound concentrations to generate dose-response curve. The percent inhibition of the test compounds is calculated using the ratio of enzyme activity controls.
elected compounds of the present invention were screened in the above-mentioned assay procedures and IC50 values were determined by fitting the dose-response data to sigmoidal curve fitting equation using Graph pad prism software V7.

SMILES: COc1cc(N2CCN(C)c3ccc([S+](C)[O-])cc32)c2cc(C)c(=O)n(C)c2c1 (single isomer, unassigned) [Example 249]
- IC50 [1]: 2010 to 5000 nM

SMILES: Cc1cc2c(N3CCCN(C)c4cc(-c5cnn(C)c5)c(C#N)cc43)cccc2[nH]c1=O [Example 5]
- inhibition at 10 µM [2]: 38%
- inhibition at 10 µM ([1]; compound at 10 μM): 48%

SMILES: CNC(=O)C1CCN(c2cc3c(cc2C#N)N(c2cc(OC)cc4c2cc(C)c(=O)n4C)CCN3C)CC1 [Example 26]
- IC50 [2]: < 50 nM
- inhibition at 10 µM ([1]; compound at 10 μM): 24%

SMILES: CNC(=O)C1CN(c2cc3c(cc2C#N)N(c2cc(OC)cc4c2cc(C)c(=O)n4C)CCN3C)C1 [Example 27]
- IC50 [2]: 51 to 100 nM
- IC50 [1]: 2010 to 5000 nM

SMILES: COc1cc(N2CCN(C)c3cc(N4CCC(C)(N)CC4)c(C#N)cc32)c2cc(C)c(=O)n(C)c2c1 [Example 29]
- IC50 [2]: < 50 nM
- IC50 [1]: 2010 to 5000 nM

SMILES: CNC(=O)c1ccc(-c2cc3c(cc2F)N(c2cc(OC)cc4c2cc(C)c(=O)n4C)CCN3C)cn1 [Example 31]
- IC50 [2]: < 50 nM
- IC50 [1]: 2010 to 5000 nM

SMILES: CNC(=O)C1CCN(c2cc3c(cc2F)N(c2cc(OC)cc4c2cc(C)c(=O)n4C)CCN3C)CC1 [Example 33]
- IC50 [2]: 51 to 100 nM
- IC50 [1]: 2010 to 5000 nM

SMILES: CCn1c(=O)c(C)cc2c(N3CCN(C)c4cc(-c5cnn(C)c5)c(C#N)cc43)cccc21 [Example 46]
- inhibition at 10 µM [2]: 98%
- IC50 [2]: > 10 nM
- IC50 [1]: 2010 to 5000 nM

SMILES: CN1CCN(c2cccc3c2ccc(=O)n3C)c2cc(C#N)c(-c3cnn(C)c3)cc21 [Example 51]
- inhibition at 10 µM [2]: 99%
- IC50 [1]: 2010 to 5000 nM

SMILES: CN1CCN(c2cccc3[nH]c(=O)ccc23)c2cc(C#N)c(-c3cnn(C)c3)cc21 [Example 52]
- inhibition at 10 µM [2]: 83%
- inhibition at 10 µM ([1]; compound at 10 μM): 35%

SMILES: CNC(=O)N1CCN(c2cc(OC)cc3c2cc(C)c(=O)n3C)c2cc(C#N)c(-c3cnn(C)c3)cc21 [Example 65, 6-Cyano-4-(7-methoxy-1,3-dimethyl-2-oxo-1,2-dihydroquinolin-5-yl)-N-methyl-7-(1-methyl-1H-pyrazol-4-yl)-3,4-dihydroquinoxaline-1(2H)-carboxamide]
- IC50 [2]: < 50 nM
- IC50 [1]: 2010 to 5000 nM

SMILES: CCOC(=O)CN1CCN(c2cc(OC)cc3c2cc(C)c(=O)n3C)c2cc(C#N)c(-c3cnn(C)c3)cc21 [Example 66, Ethyl 2-(6-cyano-4-(7-methoxy-1,3-dimethyl-2-oxo-1,2-dihydroquinolin-5-yl)-7-(1-methyl-1H-pyrazol-4-yl)-3,4-dihydroquinoxalin-1(2H)-yl)acetate]
- IC50 [2]: < 50 nM
- IC50 [1]: 2010 to 5000 nM

SMILES: Cc1cc2c(N3CCN(C)c4ccc(S(N)(=O)=O)cc43)cc(N3CC[C@@H](O)C3)cc2n(C)c1=O [Example 92, (R)-4-(7-(3-Hydroxypyrrolidin-1-yl)-1,3-dimethyl-2-oxo-1,2-dihydroquinolin-5-yl)-1-methyl-1,2,3,4-tetrahydroquinoxaline-6-sulfonamide]
- IC50 [1]: 2010 to 5000 nM

SMILES: COc1cc(N2CCN(C)c3cc(N4CCN(C(C)=O)CC4)ncc32)c2cc(C)c(=O)n(C)c2c1 [Example 119]
- IC50 [1]: 2010 to 5000 nM

SMILES: COc1cc(N2CCN(C)c3cc(N4CCCC(C#N)C4)ncc32)c2cc(C)c(=O)n(C)c2c1 (stereo not shown) [Example 120]
- inhibition at 10 µM ([1]; compound at 10 μM): 34%

SMILES: COc1cc(N2CCN(C)c3cc(N4CCCC(NC(C)=O)C4)ncc32)c2cc(C)c(=O)n(C)c2c1 (stereo not shown) [Example 122]
- inhibition at 10 µM ([1]; compound at 10 μM): 33%

SMILES: Cc1cc2c(N3CCN(C)c4cc(C5CCOC5)ncc43)cc(N3CCOCC3)cc2n(C)c1=O (stereo not shown) [Example 137]
- inhibition at 10 µM ([1]; compound at 10 μM): 26%

SMILES: Cc1cc2c(N3CCN(C)c4cc(C5CC5)ncc43)cc(N3CCOCC3)cc2n(C)c1=O [Example 138]
- IC50 [1]: 2010 to 5000 nM

SMILES: Cc1cc2c(N3CCN(C)c4cc(N5CCCCC5)ncc43)cc(N3CCOCC3)cc2n(C)c1=O [Example 139]
- inhibition at 10 µM ([1]; compound at 10 μM): 43%

SMILES: Cc1cc2c(N3CCN(C)c4cc(-c5cnn(C)c5)ncc43)cc(N3CCCC(C#N)C3)cc2n(C)c1=O (stereo not shown) [Example 149]
- IC50 [1]: 2010 to 5000 nM

SMILES: COc1cc(N2CCCc3ccc(NC(C)=O)cc32)c2cc(C)c(=O)n(C)c2c1 [Example 196, N-(7′-methoxy-1′,3′-dimethyl-2′-oxo-1′,2′,3,4-tetrahydro-2H-[1,5′-biquinolin]-7-yl)acetamide]
- IC50 [1]: 2010 to 5000 nM

SMILES: COc1cc(N2CCCc3ccc(-c4cn[nH]c4)cc32)c2cc(C)c(=O)n(C)c2c1 [Example 198, 7′-Methoxy-1′,3′-dimethyl-7-(1H-pyrazol-4-yl)-3,4-dihydro-2H-[1,5′-biquinolin]-2′(1′H)-one]
- IC50 [1]: 2010 to 5000 nM

SMILES: COc1cc(N2CCCc3ccc(S(=O)(=O)NC(C)=O)cc32)c2cc(C)c(=O)n(C)c2c1 [Example 199, N-((T-methoxy-1′,3′-dimethyl-2′-oxo-1′,2′,3,4-tetrahydro-2H-[1,5′-biquinolin]-7 yl)sulfonyl)acetamide]
- % Inhibition (10 μM) ([1]; compound at 10 μM): 45%

SMILES: CNC(=O)c1ccc(-c2cc3c(cc2C(F)F)N(c2nc(N4CCOCC4)cc4c2cc(C)c(=O)n4C)CCC3)cn1 [Example 203]
- IC50 [1]: 2010 to 5000 nM

SMILES: Cc1cc2c(N3CCCc4cc(-c5cnn(C)c5)c(C(F)F)cc43)nc(-n3ccnc3)cc2n(C)c1=O [Example 204]
- inhibition at 10 µM ([1]; compound at 10 μM): 12%

SMILES: Cc1cc2c(N3CCCc4cc(-c5cnn(C)c5)c(C(F)F)cc43)nc(N3CCC(C)(N)CC3)cc2n(C)c1=O [Example 222]
- IC50 [2]: < 50 nM

SMILES: Cc1cc2c(N3CCCc4cc(-c5cnn(C)c5)c(C(F)F)cc43)nc(N3CCN(C)CC3)cc2n(C)c1=O [Example 223]
- IC50 [2]: < 50 nM

SMILES: Cc1cc2c(N3CCCc4cc(C5CCCO5)c(C(F)F)cc43)nc(N3CC[C@@H](O)C3)cc2n(C)c1=O (stereo partly shown) [Example 227]
- IC50 [2]: 51 to 100 nM

SMILES: Cc1cc2c(N3CCCc4cc(C5CCOC5)c(C(F)F)cc43)nc(N3CC[C@@H](O)C3)cc2n(C)c1=O (stereo partly shown) [Example 228]
- IC50 [2]: < 50 nM

SMILES: COc1cc2c(cc1-c1cnn(C)c1)CCCN2c1nc(N2CCC(O)C2)cc2c1cc(C)c(=O)n2C (stereo not shown) [Example 232]
- IC50 [2]: 51 to 100 nM

SMILES: Cc1cc2c(N3CCCc4cc(-c5cccn(C)c5=O)c(C(F)F)cc43)nc(C3CCOCC3)cc2n(C)c1=O [Example 235, 5-(7-(difluoromethyl)-6-(1-methyl-2-oxo-1,2-dihydropyridin-3-yl)-3,4-dihydroquinolin-1(2H)-yl)-1,3-dimethyl-7-(tetrahydro-2H-pyran-4-yl)-1,6-naphthyridin-2(1H)-one]
- IC50 [2]: < 50 nM

SMILES: Cc1cc2c(N3CCCc4cc(N5CC(C)NC(C)C5)c(C(F)F)cc43)nc(C3CCOCC3)cc2n(C)c1=O (stereo not shown) [Example 236]
- IC50 [2]: < 50 nM

SMILES: Cc1cc2c(N3CCCc4cc(N5CCC(C)(N)CC5)c(C(F)F)cc43)nc(C3CCOCC3)cc2n(C)c1=O [Example 237]
- IC50 [2]: < 50 nM

SMILES: COc1cc2c(cc1-c1cnn(C)c1)CCCN2c1nc(C2CCOCC2)cc2c1cc(C)c(=O)n2C [Example 238]
- IC50 [2]: < 50 nM

SMILES: COc1cc2c(cc1-c1cnn(C)c1)C(C)CCN2c1nc(C2CCOCC2)cc2c1cc(C)c(=O)n2C (stereo not shown) [Example 239]
- IC50 [2]: 51 to 100 nM

SMILES: Cc1cc2c(N3CCCc4cc(-c5cnn(C)c5)c(O)cc43)nc(C3CCOCC3)cc2n(C)c1=O [Example 244, 5-(7-Hydroxy-6-(1-methyl-1H-pyrazol-4-yl)-3,4-dihydroquinolin-1(2H)-yl)-1,3-dimethyl-7-(tetrahydro-2H-pyran-4-yl)-1,6-naphthyridin-2(1H)-one]
- IC50 [2]: < 50 nM

SMILES: COc1cc2c(cc1-c1cnn(C)c1)CCCN2c1nc(N2CCC(S(N)(=O)=O)C2)cc2c1cc(C)c(=O)n2C (stereo not shown) [Example 246, 1-(5-(7-Methoxy-6-(1-methyl-1H-pyrazol-4-yl)-3,4-dihydroquinolin-1(2H)-yl)-1,3-dimethyl-2-oxo-1,2-dihydro-1,6-naphthyridin-7-yl)pyrrolidine-3-sulfonamide]
- IC50 [2]: 51 to 100 nM
